Data as given in BigSolDB 2.1.

CC(S)C(=O)NCC(=O)O (stereo not given)
solubility (mole fraction)
Conditions	273.15 K	278.15 K	283.15 K	288.15 K	293.15 K	298.15 K	303.15 K	308.15 K	313.15 K	318.15 K
in acetonitrile	0.00946	0.0105	0.0115	0.0126	0.0138	0.0151	0.0165	0.018	0.0196	0.0212
in isobutanol	0.0119	0.0141	0.0166	0.0191	0.0217	0.0247	0.0281	0.0321	0.0365	0.0413
in n-butanol	0.0251	0.0311	0.0379	0.0451	0.0529	0.0614	0.0709	0.0811	0.0918	0.103
in toluene	0.00033	0.00037	0.00041	0.00045	0.0005	0.00056	0.00062	0.00069	0.00077	0.00087
